The values below come from patent US12208088B2 (Genentech, Inc., priority 2018, dated 2025).

The subject of assay [1] is primary human pan T cells. In words: Human T-cell IL2 induction assay. Type of assay: cell-based. To be noted: IL-2, anti-CD3/anti-CD28 stimulated T cells. Here is the method:
Example B3: Human T-Cell IL2 Induction Assay
Anti-CD3 and anti-CD28 activates TCR signaling in primary human pan T cells leading to IL-2 promoter induction. Secreted IL-2 in cell culture supernatant is detected by electrochemiluminescence using a capture antibody against IL-2 and an anti-IL-2 antibody labeled with SULFO-tag.
See www.mesoscale.com for additional electrochemiluminescence technology information.
Incubate primary human pan T cells with varying concentrations of test compounds for 30 minutes in a humidified incubator at 37° C. and 5% CO2. Transfer cells to a plate pre-coated with a fixed concentration of anti-human CD3 (determined separately for each donor lot) and add soluble anti-human CD28 (final concentration=1 μg/ml). Stimulate cells in a humidified incubator at 37° C. and 5% CO2 for 4 hours. Transfer 25 μl of supernatant to a MSD single spot plate pre-coated with an anti-human IL-2 antibody. Incubate MSD plate overnight at 4° C. with gentle shaking. Wash MSD plate 4× with wash buffer. Add SULFO-tagged detection antibody at a 1:50 dilution and incubate at room temperature shaking for 2 hours. Wash MSD plate 4× with wash buffer and add […] 2×MSD read buffer. Read on an MSD instrument. Normalize data to stimulated/untreated controls to calculate % activity at each concentration of compound.
• Frozen Primary Human Pan-T Cells (StemCell Technologies #70024) • anti-human CD3 (OKT3 clone) (eBioscience #16-0037-81) • anti-human CD28 (CD28.2 clone) (BD #555725) • 96-well Human IL-2 tissue culture kit (MSD #K151AHB-4) Instrumentation: • Biomek FX for liquid handling (Beckman Coulter) • MSD SECTOR S 600 (Meso Scale Discovery)
Exemplary compounds of Formula (I) were tested in the human T-cell IL-2 induction assays. The % increase measured for IL-2 in cells treated by the test compounds relative to untreated cells are provided in Table B2 for certain compounds.

A further assay deals with HPK1 (Homo sapiens (Human), UniProt Q92918). In words: HPK1 Lantha binding assay ("Lanth"). Conditions: binding assays; Morrison Ki fit. The essentials: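 Ki values are from Morrison-equation fitting of 665/615 nm TR-FRET signals, taking enzyme level, tracer level and tracer Kd into account. The assay mix held HPK1 (2 nM), Eu-anti-GST antibody (2 nM) and Tracer222 (15 nM). Incubations were two 1 h steps at 23 °C, on 5-fold serial compound dilutions.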

Molecules are shown by their SMILES. Counter-ions that a name gives are not always drawn.

HPK1, sequence (Q92918 1-346 limits assumed): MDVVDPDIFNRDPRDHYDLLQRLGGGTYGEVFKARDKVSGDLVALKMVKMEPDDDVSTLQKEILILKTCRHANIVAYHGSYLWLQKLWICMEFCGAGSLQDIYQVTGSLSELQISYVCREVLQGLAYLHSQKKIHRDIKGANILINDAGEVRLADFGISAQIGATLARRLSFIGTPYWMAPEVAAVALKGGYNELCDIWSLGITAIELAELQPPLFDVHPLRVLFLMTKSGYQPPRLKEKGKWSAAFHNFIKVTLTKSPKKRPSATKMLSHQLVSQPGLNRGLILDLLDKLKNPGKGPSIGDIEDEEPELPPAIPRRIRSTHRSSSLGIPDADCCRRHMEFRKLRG

Regarding `Cc1c(CC#N)ccnc1-c1cc(N)cc(-c2cnc3c(c2Cl)[C@@]2(CC[C@@](C)(C#N)C2)CN3)c1` (stereo in doubt) [Compound 274b, (1S,3R)-5′-(3-Amino-5-(4-(cyanomethyl)-3-methylpyridin-2-yl)phenyl)-4′-chloro-3-methyl-1′,2′-dihydrospiro[cyclopentane-1,3′-pyrrolo[2,3-b]pyridine]-3-carbonitrile], in assay [1] (assayed concentration 0.926 μM), the “% IL relative to untreated cells” value stood at 564%.
With `CC[C@H]1C[C@@]12CNc1ncc(-c3ccc(N)c(C(=O)N(C)C)c3F)cc12` [Compound 243a, 6-Amino-3-((1R,2S)-2-ethyl-1′,2′-dihydrospiro[cyclopropane-1,3′-pyrrolo[2,3-b]pyridin]-5′-yl)-2-fluoro-N,N-dimethylbenzamide], the “% IL relative to untreated cells” value in assay [1] (assayed concentration 2.8 μM) was 111%.
For `CN(C)C(=O)c1c(N)ccc(-c2cnc3c(c2Cl)[C@]2(CC[C@](C)(C#N)CC2)CN3)c1F` [Compound 250a, 6-Amino-3-((1s,4s)-4′-chloro-4-cyano-4-methyl-1′,2′-dihydrospiro[cyclohexane-1,3′-pyrrolo[2,3-b]pyridin]-5′-yl)-2-fluoro-N,N-dimethylbenzamide], at HPK1, the Ki stood at 8.49 nM. The “% IL relative to untreated cells” value in assay [1] (assayed concentration 25 μM) was found to be 504%.
`Cc1c(CC#N)ccnc1-c1cccc(-c2cnc3c(c2Cl)[C@@]2(CC[C@@](C)(C(N)=O)C2)CN3)c1F` [Compound 267b, (1S,3R)-4′-Chloro-5′-(3-(4-(cyanomethyl)-3-methylpyridin-2-yl)-2-fluorophenyl)-3-methyl-1′,2′-dihydrospiro[cyclopentane-1,3′-pyrrolo[2,3-b]pyridine]-3-carboxamide]: the “% IL relative to untreated cells” value in assay [1] (assayed concentration 0.926 μM) came out at 298%.
For the molecule `N#Cc1ccc2[nH]nc(-c3cnc4c(c3)C3(CC3)CN4)c2c1` [Compound 322, 3-(1′,2′-Dihydrospiro[cyclopropane-1,3′-pyrrolo[2,3-b]pyridin]-5′-yl)-1H-indazole-5-carbonitrile], on HPK1, the inhibition constant Ki is 37.3 nM.
In the case of `Clc1c(-c2cnn(Cc3ccccc3)c2)cnc2c1C1(CC=CC1)CN2` [Compound 323, 5′-(1-Benzyl-1H-pyrazol-4-yl)-4′-chloro-1′,2′-dihydrospiro[cyclopentane-1,3′-pyrrolo[2,3-b]pyridin]-3-ene], on HPK1, the affinity, expressed as Ki, was 603 nM.
As for `CN1CCN(c2cc(C#N)cc3c(-c4cnc5c(c4)C4(CC4)CN5)c[nH]c23)C(=O)C1` [Compound 324, 3-(1′,2′-Dihydrospiro[cyclopropane-1,3′-pyrrolo[2,3-b]pyridin]-5′-yl)-7-(4-methyl-2-oxopiperazin-1-yl)-1H-indole-5-carbonitrile], at HPK1, the Ki was found to be 30.4 nM.
On to `N#Cc1ccc2[nH]cc(-c3cnc4c(c3Cl)[C@]3(CC[C@H](O)CC3)CN4)c2c1` [Compound 325a, 3-((1s,4s)-4′-Chloro-4-hydroxy-1′,2′-dihydrospiro[cyclohexane-1,3′-pyrrolo[2,3-b]pyridin]-5′-yl)-1H-indole-5-carbonitrile], for which the Ki on HPK1 came to 40.7 nM.
The same measure, in the same setting: as for `Cc1n[nH]cc1-c1ccc2[nH]cc(-c3cnc4c(c3)C3(CC3)CN4)c2c1` [Compound 326, 5′-(5-(3-Methyl-1H-pyrazol-4-yl)-1H-indol-3-yl)-1′,2′-dihydrospiro[cyclopropane-1,3′-pyrrolo[2,3-b]pyridine]], the figure is 76 nM; as for `COCCn1cc(-c2cnc3c(c2Cl)C2(CC=CC2)CN3)cn1` [Compound 327, 4′-Chloro-5′-(1-(2-methoxyethyl)-1H-pyrazol-4-yl)-1′,2′-dihydrospiro[cyclopentane-1,3′-pyrrolo[2,3-b]pyridin]-3-ene], 397 nM; as for `c1nc2c(cc1-c1c[nH]c3ccc(C4CC4)cc13)C1(CC1)CN2` [Compound 328, 5′-(5-Cyclopropyl-1H-indol-3-yl)-1′,2′-dihydrospiro[cyclopropane-1,3′-pyrrolo[2,3-b]pyridine]], 289 nM.
The molecule `c1cc2[nH]cc(-c3cnc4c(c3)C3(CC3)CN4)c2cn1` [Compound 329, 5-(1H-Pyrrolo[3,2-c]pyridin-3-yl)spiro[1,2-dihydropyrrolo[2,3-b]pyridine-3,1′-cyclopropane]] had a Ki at HPK1 of 90 nM.
On the same count and under the same terms, in the case of `CS(=N)(=O)c1ccc2[nH]cc(-c3cnc4c(c3)C3(CC3)CN4)c2c1` (stereo not drawn) [Compound 331, (3-(1′,2′-Dihydrospiro[cyclopropane-1,3′-pyrrolo[2,3-b]pyridin]-5′-yl)-1H-indol-5-yl)(imino)(methyl)-γ6-sulfanone] it was 243 nM.
Turning to `c1ccc2c(c1)nnn2-c1cnc2c(c1)C1(CC1)CN2` [Compound 332, 5-(Benzotriazol-1-yl)spiro[1,2-dihydropyrrolo[2,3-b]pyridine-3,1′-cyclopropane]], the affinity at HPK1 corresponds to a Ki of 570 nM.
On HPK1, `c1cc2c(-c3cnc4c(c3)C3(CC3)CN4)c[nH]c2cn1` [Compound 333, 5-(1H-Pyrrolo[2,3-c]pyridin-3-yl)spiro[1,2-dihydropyrrolo[2,3-b]pyridine-3,1′-cyclopropane]] had a Ki of 42.3 nM.
`c1nnc(-c2ccc3[nH]cc(-c4cnc5c(c4)C4(CC4)CN5)c3c2)o1` [Compound 334, 2-(3-(1′,2′-Dihydrospiro[cyclopropane-1,3′-pyrrolo[2,3-b]pyridin]-5′-yl)-1H-indol-5-yl)-1,3,4-oxadiazole Formate Salt]: affinity on HPK1 was put at a Ki of 48 nM.
At HPK1, `Cn1cnnc1-c1ccc2[nH]cc(-c3cnc4c(c3)C3(CC3)CN4)c2c1` [Compound 335, 5′-(5-(4-Methyl-4H-1,2,4-triazol-3-yl)-1H-indol-3-yl)-1′,2′-dihydrospiro[cyclopropane-1,3′-pyrrolo[2,3-b]pyridine]] showed an inhibition constant (Ki) of 130 nM.
`Cc1cc2[nH]cc(-c3cnc4c(c3)C3(CC3)CN4)c2cc1-c1cnn(C)c1` [Compound 336, 5′-(6-Methyl-5-(1-methyl-1H-pyrazol-4-yl)-1H-indol-3-yl)-1′,2′-dihydrospiro[cyclopropane-1,3′-pyrrolo[2,3-b]pyridine]] had a Ki on HPK1 of 46.6 nM.
`Fc1ccc2[nH]cc(-c3cnc4c(c3)C3(CC3)CN4)c2c1` [Compound 338, 5′-(5-Fluoro-1H-indol-3-yl)-1′,2′-dihydrospiro[cyclopropane-1,3′-pyrrolo[2,3-b]pyridine]] displayed a Ki on HPK1 of 79.7 nM.
Still for that read-out and setting: as for `CN(C)C(=O)c1ccc2[nH]cc(-c3cnc4c(c3)C3(CC3)CN4)c2c1` [Compound 339, 3-(1′,2′-Dihydrospiro[cyclopropane-1,3′-pyrrolo[2,3-b]pyridin]-5′-yl)-N,N-dimethyl-1H-indole-5-carboxamide], the figure is 373 nM; as for `CN(c1cc(C#N)cc2c(-c3cnc4c(c3)C3(CC3)CN4)c[nH]c12)S(C)(=O)=O` [Compound 340, N-(5-Cyano-3-(1′,2′-dihydrospiro[cyclopropane-1,3′-pyrrolo[2,3-b]pyridin]-5′-yl)-1H-indol-7-yl)-N-methylmethanesulfonamide], 14.8 nM; as for `CN(c1cc(C#N)cc2c(-c3cnc4c(c3)C3(CC3)CN4)cn(C)c12)S(C)(=O)=O` [Compound 341, N-(5-Cyano-3-(1′,2′-dihydrospiro[cyclopropane-1,3′-pyrrolo[2,3-b]pyridin]-5′-yl)-1-methyl-1H-indol-7-yl)-N-methylmethanesulfonamide], 12.4 nM.
On HPK1, `N#CCc1ccc2[nH]cc(-c3cnc4c(c3)C3(CC3)CN4)c2c1` [Compound 342, 2-(3-(1′,2′-Dihydrospiro[cyclopropane-1,3′-pyrrolo[2,3-b]pyridin]-5′-yl)-1H-indol-5-yl)acetonitrile] displayed a Ki of 73.4 nM.
Consider `CN(c1ccc2c(-c3cnc4c(c3)C3(CC3)CN4)c[nH]c2c1)c1cnn(C)c1` [Compound 343, 3-(1′,2′-Dihydrospiro[cyclopropane-1,3′-pyrrolo[2,3-b]pyridin]-5′-yl)-N-methyl-N-(1-methyl-1H-pyrazol-4-yl)-1H-indol-6-amine], for which, at HPK1, the Ki came to 74 nM.
The same measure, in the same setting: in the case of `N#Cc1ccc2ccn(-c3cnc4c(c3)C3(CC3)CN4)c2c1` [Compound 344, 1-(1′,2′-Dihydrospiro[cyclopropane-1,3′-pyrrolo[2,3-b]pyridin]-5′-yl)-1H-indole-6-carbonitrile] it was 590 nM; in that of `Cn1cc(Nc2ccc3c(-c4cnc5c(c4)C4(CC4)CN5)c[nH]c3c2)cn1` [Compound 345, 3-(1′,2′-Dihydrospiro[cyclopropane-1,3′-pyrrolo[2,3-b]pyridin]-5′-yl)-N-(1-methyl-1H-pyrazol-4-yl)-1H-indol-6-amine], 94 nM.
